This is an account of results in patent US20230116972A1, “CD38 MODULATORS AND METHODS OF USE THEREOF” (Cytokinetics, Inc., priority 2021, published 2023).

The target in one assay is T1, human CD38 (Homo sapiens, UniProt P28907).
T1 sequence (P28907 1-300): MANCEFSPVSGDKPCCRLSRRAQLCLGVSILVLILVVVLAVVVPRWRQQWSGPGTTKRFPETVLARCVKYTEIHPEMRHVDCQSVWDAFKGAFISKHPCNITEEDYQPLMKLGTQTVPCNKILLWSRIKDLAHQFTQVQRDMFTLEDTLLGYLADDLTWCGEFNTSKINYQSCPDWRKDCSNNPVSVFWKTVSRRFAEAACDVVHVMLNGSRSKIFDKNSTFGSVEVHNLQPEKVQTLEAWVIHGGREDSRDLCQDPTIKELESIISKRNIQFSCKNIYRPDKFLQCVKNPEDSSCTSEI
In words: human recombinant CD38 enzyme assay (hydrolysis of NAD+). It is filed as biochemical. Conditions: human recombinant CD38, 0.4 nM enzyme, 62.5 μM NAD+; read-out: hCD38 BioChem IC50. On the procedure:
(§1) Compounds described herein were assayed for their ability to inhibit the hydrolysis of NAD+ by the protein CD38. The human and mouse recombinant enzyme assays measure the inhibition of the enzyme activity by compounds using recombinant enzymes and substrates in a buffered cell-free system. The assay conditions closely mimic cellular environments. Dose responses were measured using an assay to detect the hydrolysis of NAD+. All experiments were performed in the 384-well format. […] Enzyme reactions were initiated with the addition of 10 μL of a solution containing NAD+ substrate. Subsequent detection of remaining NAD+ was determined by first converting NAD+ to NADH using alcohol dehydrogenase, then using the resulting NADH to reduce resazurine to the fluorescent product resorufin. […] Following an incubation of 60 min at ambient temperature, 10 μL of 120 mM ethanol+20 U/ml alcohol dehydrogenase+30 mM semicarbazide+0.03 mM CD38 inhibitor in 50 mM HEPES, pH 7.5, 0.2 mg/ml BSA, was added and incubated at ambient temperature for 15 min. Then 10 μl 0.32 mM NaOH was added to stop the ADH reaction (plates incubated at ambient temperature for 15 min), followed by 30 μL of 0.05 mM resazurine+1000 mU/ml Diaphorase in 200 mM Tris-HCl, pH 7.7 for 15 min at ambient temperature. The plates were read for fluorescence (Excitation/Emission=540 nm/590 nm) using an EnVision plate reader. […] Note that, in Table 4, the “Compound No” corresponds to the compound numbers in Table 1.

In the next assay the target is T2, mouse CD38 (Mus musculus, UniProt P56528).
T2 sequence (P56528 1-304): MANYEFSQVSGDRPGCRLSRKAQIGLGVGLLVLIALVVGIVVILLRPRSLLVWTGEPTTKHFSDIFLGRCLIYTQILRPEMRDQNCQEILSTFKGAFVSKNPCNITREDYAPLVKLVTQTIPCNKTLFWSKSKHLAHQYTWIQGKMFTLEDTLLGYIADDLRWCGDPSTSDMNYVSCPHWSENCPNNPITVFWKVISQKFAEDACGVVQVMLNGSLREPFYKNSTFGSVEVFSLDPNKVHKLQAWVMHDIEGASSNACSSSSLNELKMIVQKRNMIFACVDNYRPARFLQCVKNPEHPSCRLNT
In words: mouse recombinant CD38 enzyme assay (hydrolysis of NAD+). It is filed as biochemical. Conditions: read-out: mCD38 BioChem IC50. On the procedure: as §1

A word on the IC50: it is the concentration that inhibits the measured activity by half.

On to `Cn1cncc1-c1nc(C(=O)Nc2ccc(C(C)(C)O)nc2)cc(C2CCOCC2)n1` [Compound 332, N-(6-(2-hydroxypropan-2-yl)pyridin-3-yl)-2-(1-methyl-1H-imidazol-5-yl)-6-(tetrahydro-2H-pyran-4-yl)pyrimidine-4-carboxamide], for which the IC50 turned out to be 11 nM at human CD38 and 1.5 nM on mouse CD38.
The corresponding values for `Cn1cncc1-c1cc(C(F)F)nc(C(=O)N[C@H]2CC[C@H](O)CC2)n1` [Compound 347, 4-(difluoromethyl)-N-((1r,4r)-4-hydroxycyclohexyl)-6-(1-methyl-1H-imidazol-5-yl)pyrimidine-2-carboxamide] are 81.9 nM and 6.2 nM.
In the same order, the values of `CO[C@H]1CC[C@H](NC(=O)c2nc(-c3cncn3C)ncc2F)CC1` [Compound 333, 5-fluoro-N-((1r,4r)-4-methoxycyclohexyl)-2-(1-methyl-1H-imidazol-5-yl)pyrimidine-4-carboxamide] are 12.8 nM and 3.4 nM.
In the same order, the values of `Cn1cncc1-c1ccnc(C(=O)N[C@H]2C[C@](O)(c3ccccc3)C2)n1` [Compound 310, N-((1s,3s)-3-hydroxy-3-phenylcyclobutyl)-4-(1-methyl-1H-imidazol-5-yl)pyrimidine-2-carboxamide] are 354 nM and 105 nM.
As to `O=C(N[C@H]1C[C@@H](c2ccnc(C(F)(F)F)c2)C1)c1nccc(-n2ccnc2)n1` [Compound 271, 4-(1H-imidazol-1-yl)-N-((1s,3s)-3-(2-(trifluoromethyl)pyridin-4-yl)cyclobutyl)pyrimidine-2-carboxamide], the 50% inhibitory concentration (IC50) at human CD38 came to 2150 nM; at mouse CD38, 415 nM.
The corresponding values for `O=C(Nc1ccc(C(F)F)nc1)c1cc(C2CCC2)nc(-n2ccnc2)n1` [Compound 186, 6-cyclobutyl-N-(6-(difluoromethyl)pyridin-3-yl)-2-(1H-imidazol-1-yl)pyrimidine-4-carboxamide] are 10 nM and 5 nM.
`CO[C@H]1C[C@H](NC(=O)c2nccc(-c3cncn3C)n2)C1` [Compound 297, N-((1r,3r)-3-methoxycyclobutyl)-4-(1-methyl-1H-imidazol-5-yl)pyrimidine-2-carboxamide]: the IC50 turned out to be 414 nM at human CD38 and 90.8 nM on mouse CD38.
In the same order, the values of `Cn1cncc1-c1ccnc(C(=O)NC2CC3(COC3)C2)n1` [Compound 306, 4-(1-methyl-1H-imidazol-5-yl)-N-(2-oxaspiro[3.3]heptan-6-yl)pyrimidine-2-carboxamide] are 357 nM and 81.7 nM.
In the same order, the values of `Cn1cncc1-c1nc(C(=O)N[C@H]2CC[C@H](OC(F)(F)F)CC2)cc(C2CCOCC2)n1` [Compound 334, 2-(1-methyl-1H-imidazol-5-yl)-6-(tetrahydro-2H-pyran-4-yl)-N-((1r,4r)-4-(trifluoromethoxy)cyclohexyl)pyrimidine-4-carboxamide] are 12.4 nM and 5.4 nM.
The corresponding values for `Cn1cncc1-c1ccnc(C(=O)N[C@H]2C[C@@H](c3ccnc(C(F)(F)F)c3)C2)n1` [Compound 266, 4-(1-methyl-1H-imidazol-5-yl)-N-((1s,3s)-3-(2-(trifluoromethyl)pyridin-4-yl)cyclobutyl)pyrimidine-2-carboxamide] are 708 nM and 327 nM.
For the molecule `Cn1cncc1-c1nc(C(=O)N[C@H]2CC[C@H](OCC(F)(F)F)CC2)cc(C2CCC(F)(F)CC2)n1` [Compound 339, 6-(4,4-difluorocyclohexyl)-2-(1-methyl-1H-imidazol-5-yl)-N-((1r,4r)-4-(2,2,2-trifluoroethoxy)cyclohexyl)pyrimidine-4-carboxamide], the values for the half-maximal inhibitory concentration (IC50) at human CD38 and on mouse CD38 were 17.3 nM and 2 nM, respectively.
As to `Cn1cncc1-c1nc(C(=O)N[C@H]2CC[C@H](OC(F)F)CC2)cc(C2CCC(F)(F)CC2)n1` [Compound 324, 6-(4,4-difluorocyclohexyl)-N-((1r,4r)-4-(difluoromethoxy)cyclohexyl)-2-(1-methyl-1H-imidazol-5-yl)pyrimidine-4-carboxamide], the half-maximal inhibitory concentration (IC50) on human CD38 turned out to be 15.9 nM; on mouse CD38, 2.1 nM.
On to `O=C(Nc1cccnc1)c1cc(C(F)(F)F)cc(-c2cncs2)n1` [Compound 41, N-(pyridin-3-yl)-6-(thiazol-5-yl)-4-(trifluoromethyl)picolinamide], for which the figures for the IC50 on human CD38 and on mouse CD38 were 1210 nM and 244 nM, respectively.
The corresponding values for `Cn1cncc1-c1nc(C(=O)Nc2ccc(C(F)F)nc2)cc(C2CC3(COC3)C2)n1` [Compound 348, N-(6-(difluoromethyl)pyridin-3-yl)-2-(1-methyl-1H-imidazol-5-yl)-6-(2-oxaspiro[3.3]heptan-6-yl)pyrimidine-4-carboxamide] are 2.5 nM and 1 nM.
The corresponding values for `Cn1cncc1-c1nc(C(=O)N[C@H]2CC[C@H](OC(F)(F)F)CC2)cc(C2CCC(F)(F)CC2)n1` [Compound 322, 6-(4,4-difluorocyclohexyl)-2-(1-methyl-1H-imidazol-5-yl)-N-((1r,4r)-4-(trifluoromethoxy)cyclohexyl)pyrimidine-4-carboxamide] are 41.8 nM and 6.9 nM.
In the same order, the values of `COc1ccc(NC(=O)c2cc(C3CCOCC3)nc(-c3cncn3C)n2)cn1` [Compound 355, N-(6-methoxypyridin-3-yl)-2-(1-methyl-1H-imidazol-5-yl)-6-(tetrahydro-2H-pyran-4-yl)pyrimidine-4-carboxamide] are 3.5 nM and 1.1 nM.
Turning to `Cn1cncc1-c1ccnc(C(=O)Nc2ccc(OC3CCC(F)(F)CC3)nc2)n1` [Compound 330, N-(6-((4,4-difluorocyclohexyl)oxy)pyridin-3-yl)-4-(1-methyl-1H-imidazol-5-yl)pyrimidine-2-carboxamide], the 50% inhibitory concentration (IC50) at human CD38 turned out to be 5 nM; on mouse CD38, 9.8 nM.
In the case of `Cn1cncc1-c1nc(C(=O)Nc2ccc(C(F)(F)F)nc2)cc(C2CC3(COC3)C2)n1` [Compound 345, 2-(1-methyl-1H-imidazol-5-yl)-6-(2-oxaspiro[3.3]heptan-6-yl)-N-(6-(trifluoromethyl)pyridin-3-yl)pyrimidine-4-carboxamide], the results for the half-maximal inhibitory concentration (IC50) on human CD38 and at mouse CD38 were 3.3 nM and 1 nM, respectively.
In the same order, the values of `COCCO[C@@H]1CC[C@@H](NC(=O)c2cc(C3CCOCC3)nc(-c3cncn3C)n2)C1` [Compound 352, N-((1R,3R)-3-(2-methoxyethoxy)cyclopentyl)-2-(1-methyl-1H-imidazol-5-yl)-6-(tetrahydro-2H-pyran-4-yl)pyrimidine-4-carboxamide] are 25.4 nM and 20.6 nM.
In the same order, the values of `CO[C@H]1CC[C@H](NC(=O)c2nc(-c3cncn3C)ncc2Cl)CC1` [Compound 329, 5-chloro-N-((1r,4r)-4-methoxycyclohexyl)-2-(1-methyl-1H-imidazol-5-yl)pyrimidine-4-carboxamide] are 34 nM and 10.7 nM.
In the same order, the values of `Cn1cncc1-c1cc(C(C)(C)C)nc(C(=O)Nc2ccc(C(F)(F)F)nc2)n1` [Compound 190, 4-(tert-butyl)-6-(1-methyl-1H-imidazol-5-yl)-N-(6-(trifluoromethyl)pyridin-3-yl)pyrimidine-2-carboxamide] are 502 nM and 427 nM.
For the molecule `O=C(Nc1ccc(C(F)F)nc1)c1nccc(-c2cncs2)n1` [Compound 150, N-(6-(difluoromethyl)pyridin-3-yl)-4-(thiazol-5-yl)pyrimidine-2-carboxamide], the half-inhibitory concentration (IC50) came out at 1060 nM at human CD38 and 4990 nM at mouse CD38.
The corresponding values for `Cn1cncc1-c1nc(C(=O)Nc2ccc(C(C)(C)O)nc2)cc(C2CCC(F)(F)CC2)n1` [Compound 336, 6-(4,4-difluorocyclohexyl)-N-(6-(2-hydroxypropan-2-yl)pyridin-3-yl)-2-(1-methyl-1H-imidazol-5-yl)pyrimidine-4-carboxamide] are 12.3 nM and 1.3 nM.
As to `O=C(Nc1ccc(C(F)(F)F)nc1)c1cccc(-c2cncs2)n1` [Compound 50, 6-(thiazol-5-yl)-N-(6-(trifluoromethyl)pyridin-3-yl)picolinamide], the half-maximal inhibitory concentration (IC50) on human CD38 turned out to be 1440 nM; on mouse CD38 it was 855 nM.
